Measured values reported in patent US9388382B2, “Isolation of CD14 negative, CD45 positive and CD117 positive embryonic-like stem cells free of monocytes from human umbilical cord blood mononuclear cells” (THE BOARD OF TRUSTEES OF THE UNIVERSITY OF ILLINOIS, priority 2005, dated 2016).

Legend:
[1] = test system: ConA-stimulated lymphocytes of diabetic NOD mouse; assay: ConA-stimulated autoimmune lymphocyte proliferation in coculture with differentiated embryonic-like stem cells; type: cell-based; conditions: MGTA 10 μM, p<0.01
Experimental: The specific carboxypeptidase inhibitor, carboxypeptidase inhibitor 2-mercaptomethyl-3-guanidinoethylthiopropanoic acid (MGTA, 10 μM) was applied to block carboxypeptidase. First, embryonic-like stem cells were differentiated by treatment with 10 nM Exendin4+10 ng/ml GM-CSF+25 mM glucose in 7% FBS-DMEM culture medium for 3-5 days. Second, autoimmune lymphocytes were isolated form the diabetic NOD mouse and then cocultured with these embryonic-like stem cells in the presence MGTA. The mouse lymphocyte mitogen concanavalin A (ConA) was used to stimulate the proliferation of lymphocytes.

[2] = test system: DNA methyltransferase (DNMT) activity of lymphocytes; assay: DNA methyltransferase activity of lymphocytes regulated by CB-SC-derived NO; type: cell-based; conditions: presence of iNOS inhibitor
[3] = test system: PHA- or IL-2-stimulated allogeneic lymphocytes; assay: Mitogen-stimulated lymphocyte proliferation in coculture with CB-SC (cell count); type: cell-based, human; conditions: 200 μM/day L-NNA for 3 days, p<0.05
Experimental: (§1) For PHA stimulation, lymphocyte suspensions (1×10^6 cells/ml) with or without PHA (10 μg/ml, Sigma) were seeded onto CB-SC cell cultures in regular culture medium. PHA-stimulated lymphocytes without CB-SC served as positive control; lymphocytes cultured only in regular medium served as negative control. Lymphocytes cocultured with CB-SC without PHA stimulation served as an additional negative control. For IL-2 stimulation, IL-2 (500 U/ml, eBioscience) was used. After 5-6 days, the suspended lymphocytes were collected for cell count and/or flow analysis.
Unfixed CB-SC from same cord blood units served as controls. Additionally, we employed transwell culture system with 0.4 μm size (Sigma) to plant lymphocytes.
In experiments where N^ω-nitro-L-arginine (L-NNA, Sigma) was used to inhibit NO synthase, the drug (200 μM L-NNA) was added 1 h before PHA stimulation and then administrated 200 μM/day for additional two days. [Ziche, M., L. Morbidelli, E. Masini, S. Amerini, H. J. Granger, C. A. Maggi, P. Geppetti, and F. Ledda. 1994. Nitric oxide mediates angiogenesis in vivo and endothelial cell growth and migration in vitro promoted by substance P. J Clin Invest. 94:2036-2044].

[4] = test system: human peripheral blood lymphocyte subsets; assay: Coculture of CB-SC with lymphocytes, flow analysis of T cell subsets; type: cell-based; conditions: PHA stimulation without CB-SC, p<0.05
Description: CB-SC adhere very tightly to the culture dishes and display large rounded morphology, it is easy to distinguish between CB-SC and lymphocytes. CB-SC growing at 80% confluence were used for coculture with allogeneic lymphocytes. Allogeneic lymphocytes were collected from buffy coats of healthy donors (Life-Source Blood Services, Glenview, Ill.) after Ficoll-Hypaque separation followed by removing all attached cells and then cocultured with CB-SC at the ratio (1:10) [Zhao, Y., H. Wang, and T. Mazzone. 2006. Identification of stem cells from human umbilical cord blood with embryonic and hematopoietic characteristics. Exp Cell Res. 2006, 312: 2454-2464. DOI: 10.1016/j.yexcr.2006.04.008. April 26; (Epub ahead of print)] of CB-SC.
as §1, with “After 5-6 days, the suspended lymphocytes were collected for cell count and/or flow analysis.” left out
Flow analysis was preformed as previously described [Zhao, Y., H. Wang, and T. Mazzone. […] After staining, cells were analyzed using a CyAn ADP (DakoCytomation). […]

[5] = test system: intracytoplasmic IL-10 in allogeneic lymphocytes; assay: Flow analysis of intracellular IL-10 production; type: cell-based, human; conditions: PHA-stimulated lymphocytes without CB-SC
Experimental: Allogeneic lymphocytes were cocultured with CB-SC at ratio 1:10 of CB-SC: lymphocytes, in the presence or absence of mitogen PHA. After coculture for 5-6 days, cells were permeabalized and evaluated for intracytoplasmic IL-10 level by flow cytometry. Isotype-matched mouse IgG1κ antibody served as negative control. Data represent one of at least three experiments with the similar results;
as §1
Flow analysis was preformed as previously described [Zhao, Y., H. Wang, and T. Mazzone. 2006. Identification of stem cells from human umbilical cord blood with embryonic and hematopoietic characteristics. Exp Cell Res. 2006, 312: 2454-2464. DOI: 10.1016/j.yexcr.2006.04.008. April 26; (Epub ahead of print)]. […] After staining, cells were analyzed using a CyAn ADP (DakoCytomation).

Compound: 2-mercaptomethyl-3-guanidinoethylthiopropanoic acid [MGTA]
- reversal of stem-cell inhibition of ConA-stimulated lymphocyte proliferation [1]: completely revert their inhibition

Compound: CC(=N)NCc1cccc(CN)c1 [1400 W]
- blocking of regulation of lymphocyte DNMT activity by CB-SC-derived NO [2]: significantly blocked

Compound: NC(=NCCC[C@H](N)C(=O)O)N[N+](=O)[O-] [L-NNA, N-omega-nitro-L-arginine]
- lymphocyte cell number in presence vs absence of L-NNA [3]: about 4 fold

Compound: phytohaemagglutinin [PHA]
- increase of CD8^+ and decrease of CD4^+ T cell percentage vs lymphocytes alone [4]: more than 2 fold
- IL-10-positive cells [5]: 80%
